The results in this text go back to ChEMBL document CHEMBL1201862, “PubChem BioAssay data set” (2004).

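Tested at 5 concentrations; 48 h exposure; 96-well plates; endpoints linearly interpolated, else capped at highest concentration. Here, GI50 denotes the concentration required for 50% inhibition of growth.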 Activity calls are given as the source filed them. Cut-off read from the data, not from the text of the source: active = GI50 up to about 1.1 µM and inactive = higher. Some results are limits rather than exact numbers.

Among the test systems are CAKI-1; HL-60; SK-MEL-5; SN12C; HT-29; CCRF-CEM; SNB-19; SF-268; EKVX; NCI-H226; HCT-15; SR; HCC 2998; NCI-H460; OVCAR-5; M14; NCI-H23; 786-0; HOP-92; SK-OV-3.
Test in all cases: NCI anticancer screen, dose series, 48 h

Turning to `Cc1nn(C(=O)c2ccncc2)c2c1C(c1ccc(Cl)cc1)SC(=N)N2` (stereo not given), the GI50 in the assay on CAKI-1, in the assay with HL-60, in the assay with SK-MEL-5, in the assay on SN12C, in the assay on HT-29 and in the assay on CCRF-CEM was > 10 µM (inactive) each time. The GI50 in the assay on SNB-19 is > 10 µM (inactive); in the assay on SF-268, > 10 µM (inactive); with EKVX, > 10 µM (inactive); in the assay on NCI-H226, > 10 µM (inactive); in the assay with HCT-15 it was greater than 10 µM; in the assay with SR, > 10 µM (inactive). In addition, the GI50 in the assay on HCC 2998, with NCI-H460, in the assay with OVCAR-5, with M14, in the assay on NCI-H23 and in the assay with 786-0 was > 10 µM (inactive) each time. In addition, the GI50 with HOP-92 is > 10 µM (inactive).
On to `COc1ccc(/C=C2\C[C@H]3[C@@H]4CCC5=C[C@@H](N6CCCC6)CC[C@]5(C)[C@H]4CC[C@]3(C)[C@H]2O)cc1`, for which the GI50 in the assay on CAKI-1 is 3.52 µM (inactive); with HL-60, 1.95 µM (inactive); in the assay on SK-MEL-5 it was 1.55 µM (inactive); in the assay with SN12C, 4.8 µM (inactive); in the assay on HT-29 it was 0.728 µM (active); with SNB-19, 4.61 µM (inactive). The GI50 in the assay with SF-268 was 2.92 µM (inactive); in the assay on EKVX it was 3.81 µM (inactive); in the assay with NCI-H226 it was 3.13 µM (inactive); in the assay with HCT-15 it was 1.4 µM; with SR it was 1.01 µM (active); in the assay on SK-OV-3 it was 5.18 µM (inactive). Also, the GI50 with HCC 2998 is 1.31 µM (inactive); in the assay with NCI-H460, 2.49 µM (inactive); in the assay with OVCAR-5, 4.81 µM (inactive); in the assay with M14 it was 1.51 µM (inactive); in the assay on NCI-H23 it was 3.44 µM (inactive); in the assay on 786-0, 1.53 µM (inactive). For the same molecule, the GI50 with HOP-92 was 2.49 µM (inactive).
As to `CN1C(=O)C(Cl)(C(Cl)(Cl)S(=O)(=O)O)C(=O)c2ccccc21.c1ccncc1` (stereo not given), the GI50 in the assay on CAKI-1 was > 100 µM (inactive); in the assay on HL-60, > 100 µM (inactive); in the assay on SK-MEL-5, > 100 µM (inactive); with SN12C, > 100 µM (inactive); in the assay with HT-29 it was 25.7 µM (inactive); in the assay with CCRF-CEM, > 100 µM (inactive). In addition, the GI50 is > 100 µM (inactive) in the assay on SNB-19; > 100 µM (inactive) in the assay on SF-268; > 100 µM (inactive) in the assay on EKVX; 33.7 µM (inactive) in the assay on NCI-H226; > 100 µM (inactive) in the assay on SR; > 100 µM (inactive) in the assay with SK-OV-3. The GI50 in the assay on HCC 2998, in the assay with NCI-H460, with M14, in the assay on NCI-H23, with 786-0 and in the assay with HOP-92 was > 100 µM (inactive) each time.
As for `CC[C@H](C)C(=O)O[C@H]1C[C@@H](C)C=C2C=C[C@H](C)[C@H](CC[C@@H]3C[C@@H](O)CC(=O)O3)[C@H]21` [LOVASTATIN], the GI50 was 1.17 µM (inactive) with CAKI-1; 8.83 µM (inactive) in the assay on HL-60; 6.7 µM (inactive) with SK-MEL-5; 1.71 µM (inactive) with SN12C; 11.6 µM (inactive) with HT-29; 18.4 µM (inactive) with CCRF-CEM. Besides, the GI50 is > 30 µM (inactive) with EKVX; 11.9 µM (inactive) in the assay on NCI-H226; 3.12 µM with HCT-15; 2.11 µM (inactive) with SR; 11.8 µM (inactive) in the assay on SK-OV-3; 15.1 µM (inactive) in the assay on HCC 2998. For the same molecule, the GI50 in the assay on NCI-H460 was 18 µM (inactive); with OVCAR-5 it was > 30 µM (inactive); in the assay on M14, 12.3 µM (inactive); with NCI-H23 it was 1.02 µM (active); in the assay on 786-0, 9.77 µM (inactive); in the assay with HOP-92, 0.0308 µM (active).
Take `CC(C)(C)OC(=O)N/N=C(/N)Cc1ccccc1`: the GI50 in the assay on CAKI-1, in the assay with HL-60, in the assay with SK-MEL-5, in the assay on SN12C, in the assay with HT-29 and in the assay on CCRF-CEM was > 100 µM (inactive) each time. For the same molecule, the GI50 in the assay on SNB-19 is > 100 µM (inactive); in the assay on SF-268, > 100 µM (inactive); in the assay on EKVX, > 100 µM (inactive); with NCI-H226, > 100 µM (inactive); in the assay on HCT-15, greater than 100 µM; in the assay on SR it was > 100 µM (inactive). The GI50 in the assay on SK-OV-3, in the assay with HCC 2998, in the assay on OVCAR-5, with M14, with NCI-H23 and in the assay with 786-0 was > 100 µM (inactive) each time. Also, in the assay with HOP-92, the GI50 is > 100 µM (inactive).
On to `COC(=O)/C=C(\C)CC/C=C(\C)CCC(O)C(C)(C)O` (stereo not given), for which the GI50 with CAKI-1 is 20.4 µM (inactive); with HL-60, 15.6 µM (inactive); in the assay with SK-MEL-5, 16.6 µM (inactive); with SN12C, 19.3 µM (inactive); in the assay on HT-29 it was 31.4 µM (inactive); with CCRF-CEM, 15.5 µM (inactive). Moreover, the GI50 in the assay with SNB-19 was > 100 µM (inactive); in the assay with EKVX, 41.9 µM (inactive); in the assay on NCI-H226, 28.8 µM (inactive); in the assay on HCT-15, 23.3 µM; with SR, 17.8 µM (inactive); in the assay on SK-OV-3, > 100 µM (inactive). The GI50 is 16.8 µM (inactive) with HCC 2998; 19.8 µM (inactive) in the assay on NCI-H460; 60.4 µM (inactive) in the assay with OVCAR-5; 27.1 µM (inactive) in the assay with M14; 29.2 µM (inactive) with NCI-H23; 19.4 µM (inactive) with 786-0. In addition, the GI50 in the assay on HOP-92 was 29.9 µM (inactive).
In the case of `COc1ccc2nc3ccccc3c(NCCN(CCCl)CCCl)c2c1`, the GI50 is 0.251 µM (active) in the assay with CAKI-1; 0.206 µM (active) in the assay on HL-60; 0.658 µM (active) in the assay with SN12C; 0.543 µM (active) with HT-29; 0.144 µM (active) in the assay with CCRF-CEM; 0.656 µM (active) with SNB-19. Moreover, the GI50 in the assay on SF-268 was 0.783 µM (active); in the assay on EKVX it was 2.35 µM (inactive); in the assay on NCI-H226, 1 µM (active); in the assay on SR it was 0.0321 µM (active); in the assay on SK-OV-3, 1.48 µM (inactive); in the assay with HCC 2998, 1.28 µM (inactive). For the same molecule, the GI50 with OVCAR-5 was 0.643 µM (active); in the assay with M14 it was 1.03 µM (active); in the assay on NCI-H23 it was 0.156 µM (active); in the assay with 786-0, 0.33 µM (active); with HOP-92, 0.476 µM (active).
As for `CC(C)C(Nc1c2ccccc2nc2ccccc12)C(=O)O` (stereo not given), the GI50 in the assay on CAKI-1 is > 100 µM (inactive); in the assay with HL-60, 52.6 µM (inactive); in the assay on SN12C, > 100 µM (inactive); with HT-29, 59.7 µM (inactive); in the assay with CCRF-CEM, > 100 µM (inactive); in the assay on SNB-19, > 100 µM (inactive). For the same molecule, the GI50 is > 100 µM (inactive) in the assay on SF-268; 67.8 µM (inactive) with EKVX; > 100 µM (inactive) with NCI-H226; greater than 100 µM with HCT-15; 46.5 µM (inactive) with SR; > 100 µM (inactive) with SK-OV-3. Also, the GI50 in the assay with HCC 2998 is > 100 µM (inactive); in the assay with NCI-H460 it was 65.5 µM (inactive); with OVCAR-5, > 100 µM (inactive); in the assay on M14, > 100 µM (inactive); in the assay with NCI-H23 it was > 100 µM (inactive); in the assay with 786-0 it was > 100 µM (inactive). Also, the GI50 in the assay on HOP-92 is 29.2 µM (inactive).
Consider `COCn1cc(C2=C(C)C(=O)C(C)=C(C)C2=O)cn1`, for which the GI50 is > 100 µM (inactive) in the assay on CAKI-1; 4.6 µM (inactive) in the assay on HL-60; 38.1 µM (inactive) in the assay on SK-MEL-5; > 100 µM (inactive) in the assay with SN12C; > 100 µM (inactive) in the assay on HT-29; 21.9 µM (inactive) in the assay on CCRF-CEM. Moreover, the GI50 in the assay on SNB-19 was > 100 µM (inactive); in the assay on SF-268, 25.4 µM (inactive); in the assay with EKVX, 18.2 µM (inactive); with NCI-H226, > 100 µM (inactive); in the assay with HCT-15 it was greater than 100 µM; with SR, 39.4 µM (inactive). The GI50 was > 100 µM (inactive) with HCC 2998; > 100 µM (inactive) in the assay with NCI-H460; > 100 µM (inactive) with OVCAR-5; > 100 µM (inactive) with M14; > 100 µM (inactive) with NCI-H23; 18 µM (inactive) in the assay with 786-0. Moreover, the GI50 in the assay with HOP-92 was 12.7 µM (inactive).
Regarding `CC1(C)N=C(N)N=C(N)N1CCCCc1ccccc1`, the GI50 in the assay on CAKI-1 is 7.94 µM (inactive); in the assay on HL-60 it was 0.431 µM (active); in the assay on SK-MEL-5 it was 0.59 µM (active); in the assay on SN12C, 0.82 µM (active); in the assay on HT-29, 0.124 µM (active); in the assay with CCRF-CEM it was 0.483 µM (active). The GI50 in the assay with SNB-19 was 0.733 µM (active); in the assay with SF-268 it was < 0.025 µM (active); in the assay with EKVX it was 2.21 µM (inactive); in the assay on NCI-H226, 6.47 µM (inactive); in the assay with HCT-15, 2.92 µM; with SR it was < 0.0334 µM (active). Moreover, the GI50 in the assay with HCC 2998 is 13.3 µM (inactive); with NCI-H460, 0.151 µM (active); in the assay with OVCAR-5, 1.99 µM (inactive); in the assay on M14 it was 0.181 µM (active); in the assay on NCI-H23 it was 0.31 µM (active); in the assay with 786-0 it was < 0.0305 µM (active). Further, in the assay on HOP-92, the GI50 was > 62.2 µM (inactive).
On to `CCOc1ccc(/C=C\c2cc(OC)c(OC)c(OC)c2)cc1`, for which the GI50 in the assay on CAKI-1 was 0.01 µM (active); in the assay on HL-60, < 0.0001 µM (active); in the assay with SK-MEL-5 it was 0.012 µM (active); in the assay with SN12C, 0.00129 µM (active); in the assay with HT-29, 0.000131 µM (active); in the assay on CCRF-CEM, 0.01 µM (active). Moreover, the GI50 is 0.000165 µM (active) with SNB-19; 0.000625 µM (active) in the assay with SF-268; 0.735 µM (active) in the assay with EKVX; 0.00218 µM (active) with NCI-H226; 0.027 µM in the assay on HCT-15; 0.000931 µM (active) in the assay with SR. For the same molecule, the GI50 was 0.0685 µM (active) in the assay with HCC 2998; 0.000674 µM (active) in the assay on NCI-H460; 22.1 µM (inactive) in the assay with OVCAR-5; 0.01 µM (active) in the assay with M14; 0.027 µM (active) with NCI-H23; 0.000216 µM (active) in the assay on 786-0. Moreover, the GI50 in the assay with HOP-92 is 0.000828 µM (active).
